Source: patent publication US12344584B2, “KCNQ potentiators” (Eli Lilly and Company, priority 2019, dated 2025)
Read-outs that look alike come from different tables or passages of the source.

Test system: motor neurons derived from ALS patient iPSC line with pathogenic mutation in TARDBP
Assay: Optopatch excitability assay in motor neurons derived from ALS patient iPSC line (TARDBP mutation)
Type: cell-based, human
Conditions: for EC50: Homo sapiens, iPSC, TARDBP line, blue LED 5.1 mW/cm^2, mean, read-out: EC50, inhibition of excitability (action potential frequency)
Description: Optopatch Excitability Assay for Example 1 in Motor Neurons Derived From ALS Patient iPSC Lines
Altered excitability of cortical neurons and lower motor neuron is an important factor in the pathophysiology of ALS (See, for example, K. Kanai, et. al., J Neurol Neurosurg Psychiatry, 83, 734-738 (2012); P. Menon, et. al., Eur Neurol., 24, 816-824 (2017)). All-optical electrophysiology (“Optopatch”) was used to evaluate excitability in cultured motor neurons derived from iPSC lines from two ALS patients with different pathogenic mutations.
Cell Culture: The two iPSC lines are derived from one patient with a pathogenic mutation in TARDBP and one patient with a pathogenic repeat expansion mutation in C9orf72, respectively. Motor neurons are generated from these lines by a 2D differentiation method adapted from the dual SMAD inhibition neuronal patterning protocol (See S. M. Chambers, et. al., Nat Biotechnol., 27, 275-280 (2009)) by inclusion of motor neuron morphogens. Differentiation is verified by visual inspection, karyotyping and staining for beta-III-tubulin and the nuclear motor neuron marker ISL1. Neurons are cultured on a monolayer of mouse glia in mTeSR (Stem Cell Technologies), supplemented with 10 ng/mL BDNF. Forty-eight hours prior to imaging, 100 nM trans-retinal was added to the medium.
Transduction with Optopatch vectors: At 15 days in vitro, cultured motor neurons are transduced with a lentiviral vector to drive the co-expression of the actuator CheRiff-mOrange2 and the voltage indicator QuasAr3-Citrine (for details see D. R. Hochbaum, et. al., Nat. Methods, 11, 825-833 (2014)). Forty-eight hours prior to imaging, 100 nM trans-retinal was added to the medium.
Solutions: Recordings are performed in Brainphys™ imaging buffer with 3 mM potassium. The gap junction blocker 2-aminoethoxydiphenyl borate (50 μM) is added to eliminate electrical coupling between cells, and NBQX (10 μM), gabazine (20 μM), and AP5 (25 μM) were used to block synaptic transmission.
Optopatch Recordings: Five days after transduction, Optopatch imaging is performed on a custom, ultra-widefield fluorescence microscope at RT. Motor neurons are illuminated with red laser excitation (200 W/cm^2; 635 nm) to monitor changes in QuasAr fluorescence and blue LED excitation (0-127 mW/cm^2, 470 nm) to depolarize the cell membrane with CheRiff. A custom blue light stimulus protocol is used consisting of: i) 2 sec of red illumination only to monitor spontaneous activity, ii) 5×500 msec steps of increasing blue light intensity and iii) 2×2 sec linearly increasing blue light ramps, each with a different maximum blue intensity. Optopatch data are recorded using a Hamamatsu ORCA-Flash 4.0 sCMOS camera with a 1 kHz frame rate. The field of view size is 4 mm×0.5 mm. Custom control software written in MATLAB is used to control illumination protocols and record all movies. To examine acute effects of Kv7.2/7.3 potentiators, neurons are incubated with test compound for 15 min prior to imaging.
Data Analysis: Image segmentation analysis is performed using temporal Principle Component Analysis and spatial-temporal Independent Component Analysis to isolate individual neurons. A spike-finding algorithm is used to find action potentials, and data are analyzed for compound effects on mean firing rate, adaptation, rheobase and action potential waveform shape by comparing to vehicle controls (for detail, see C. A. Werley, et. al., Curr. Protoc. Pharmacol., 78, 11.20.1-11.20.24. (2017)).
Subjected to the protocol described above, the primary effect of the Example 1 is on the action potential firing rate in response to low intensity blue light illumination.
Fitting a 4-parameter logistic equation to the data may be used to determine the potency (EC50) of the effect of Example 1 on action potential frequency. Results are shown in Table 1 for two separate differentiation efforts each for the lines derived from the patients carrying the TARDBP and C9orf72 mutations.

How did the EC50 (Diff 1) turn out when `CC(C)(C)[C@H](O)CNC(=O)NCc1ccnc(OCC(F)(F)F)c1` [Example 1, 1-[(2S)-2-hydroxy-3,3-dimethyl-butyl]-3-[[2-(2,2,2-trifluoroethoxy)-4-pyridyl]methyl]urea] was run?
Its EC50 is 150 nM.

And the EC50 (Diff 2)?
Its EC50 is 150 nM.

What about the “effect on action potential frequency” value (blue LED illumination intensity 5.1 mW/cm^2, text does not distinguish the two lines) of the same compound?
The value was “decreased action potential frequency in a concentration-dependent manner”.

What about the “observed effects compared with flupirtine” value (both patient lines, vs known Kv7.2/7.3 potentiator flupirtine) of the same compound?
The value was “qualitatively similar but more potent”.
